Measured values from US20180338927A1, “ETHER CELLULOSE DERIVATIVE MICROPARTICLE” (Toray Industries, Inc., priority 2015, published 2018).
Structures can show the parent of a compound that is named as a salt.

Test: Comparison of supported amounts by HPLC (Test Example 8)
Format: physicochemical
Details: porous Example 6 microparticles (Examples 10 to 15) versus raw material ethyl cellulose powder (Comparative Examples 6 to 11)
Method: The supported amount ratio of a physiologically active substance between microparticles in an example and microparticles in a comparative example supporting the same physiologically active substance was calculated on the basis of the following equation. HPLC measurement was carried out as follows. After weighing 25 mg each of the microparticles in the examples and the comparative examples, the microparticles were respectively put in 50-mL volumetric flasks. Each type of microparticles was completely dissolved in 5 mL of ethanol added, and the solution was diluted with deionized water added and passed through a 0.45-μm filter to provide an HPLC sample. The sample was measured under the same conditions as for Test Example 5.

Support amount ratio (=example/comparative example)	Compound
1.2	Cn1c(=O)c2[nH]cnc2n(C)c1=O [Theophylline, theophylline]
10.7	Cc1ncc(C[n+]2csc(CCO)c2C)c(N)n1 [Thiamine hydrochloride, thiamine hydrochloride]
1.8	C=C[C@H]1C[N@@]2CC[C@H]1C[C@H]2[C@H](O)c1ccnc2ccc(OC)cc12 [Quinine hydrochloride dihydrate, quinine hydrochloride dihydrate]
1.6	O=C(O)c1ccccc1O [Salicylic acid, salicylic acid]
1.4	CC(=O)Nc1ccc(O)cc1 [Acetaminophen, acetaminophen]
1.2	CC(C)Cc1ccc(C(C)C(=O)O)cc1 (stereo not drawn) [Ibuprofen, ibuprofen]
